From US20100267561A1, “HERBICIDAL PYRIDAZINONE DERIVATIVES” (priority 2007, published 2010)

Key:
Test in all cases: Test B pre-/postemergence plant response
Type in all cases: in vivo
[1] = system: blackgrass (Alopecurus myosuroides); settings: for Blackgrass plant response rating: 8 g ai/ha
In short: (§1)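 Preemergence and postemergence (plants 2-18 cm, 1- to 4-leaf stage) applications used test chemicals in a non-phytotoxic solvent with surfactant. Plants were held in a greenhouse 13 to 15 days, then rated visually against controls on a 0-100 scale (0 no effect, 100 complete control).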

[2] = system: goosegrass (Eleusine indica); settings: for Goosegrass plant response rating: 8 g ai/ha
In short: as §1

[3] = system: Russian thistle (Salsola iberica); settings: Preemergence
In short: as §1

kochia (Kochia scoparia) = system: kochia (Kochia scoparia)
In short: as §1

[4] = system: giant foxtail (Setaria faberii); settings: for Foxtail, Giant plant response rating: 8 g ai/ha
In short: as §1

[5] = system: woolly cupgrass (Eriochloa villosa); settings: for Cupgrass, Woolly plant response rating: 8 g ai/ha
In short: as §1

[6] = system: common ragweed (Ambrosia elation); settings: for Ragweed plant response rating: 8 g ai/ha
In short: as §1

[7] = system: Italian ryegrass (Lolium multiflorum); settings: for Ryegrass, Italian plant response rating: 8 g ai/ha
In short: as §1

[8] = system: pigweed (Amaranthus retroflexus); settings: for Pigweed plant response rating: 8 g ai/ha
In short: as §1

[9] = system: johnsongrass (Sorghum halepense); settings: for Johnsongrass plant response rating: 8 g ai/ha
In short: as §1

[10] = system: eastern black (E.B.) nightshade (Solanum ptycanthum); settings: Preemergence
In short: as §1

[11] = system: lambsquarters (Chenopodium album); settings: for Lambsquarters plant response rating: 8 g ai/ha
In short: as §1

soybean (Glycine max) = settings: for Plant response rating, Soybean: Postemergence
In short: as §1

[12] = system: catchweed bedstraw (Galium aparine); settings: Preemergence
In short: as §1

[13] = Postemergence, 16 g ai/ha, scale 0 to 100
[14] = Postemergence, 62 g ai/ha, scale 0 to 100
[15] = Preemergence, 31 g ai/ha, 0 to 100 scale, 0 no effect, 100 complete control
[16] = Preemergence, 62 g ai/ha, scale 0 to 100
[17] = Postemergence, 31 g ai/ha, scale 0 to 100, 0 no effect, 100 complete control
[18] = Preemergence, 16 g ai/ha, scale 0 to 100 (0 no effect, 100 complete control)
[19] = 16 g ai/ha, scale 0 to 100 (0 no effect, 100 complete control)
[20] = 31 g ai/ha, 0 to 100 scale, 0 no effect, 100 complete control
[21] = 8 g ai/ha, postemergence, 0-100 scale

CCc1cc(-c2ccc(Cl)c(Cl)c2)nn1-c1c(O)cnn(C)c1=O [Compound 20]
50: Plant response rating, Blackgrass [1, 13] | Plant response rating, Foxtail, Giant [4, 15] | Plant response rating, Cupgrass, Woolly [5, 15] | Plant response rating, Johnsongrass [9, 18] | Plant response rating, Galium [12, 20]
55: Plant response rating, Ryegrass, Italian [7, 13]
80: Plant response rating, Goosegrass [2, 14] | Foxtail, Giant plant response rating ([4]; postemergence, 0-100 scale)
98: Plant response rating, Cupgrass, Woolly [5, 16]
30: Blackgrass plant response rating ([1]; postemergence, 0-100 scale) | Plant response rating, Cupgrass, Woolly [5, 18] | Ryegrass, Italian plant response rating ([7]; Preemergence, scale 0 to 100) | Johnsongrass plant response rating ([9]; postemergence, 0-100 scale)
35: Plant response rating, Ryegrass, Italian [7, 18]
95: Plant response rating, Foxtail, Giant [4, 17] | Plant response rating, Foxtail, Giant [4, 14] | Plant response rating, Johnsongrass [9, 16]
5: Goosegrass plant response rating ([2]; postemergence, 0-100 scale)
75: Plant response rating, Johnsongrass [9, 13] | Plant response rating, Johnsongrass [9, 15]
20: Plant response rating, Goosegrass [2, 13] | Plant response rating, Lambsquarters [11, 18]
65: Plant response rating, Goosegrass [2, 17]
45: Cupgrass, Woolly plant response rating ([5]; postemergence, 0-100 scale)
10: Blackgrass plant response rating ([1]; Preemergence, scale 0 to 100)
90: Plant response rating, Blackgrass [1, 15] | Plant response rating, Blackgrass [1, 16] | Plant response rating, Foxtail, Giant [4, 13] | Plant response rating, Cupgrass, Woolly [5, 13] | Plant response rating, Cupgrass, Woolly [5, 17] | Plant response rating, Ryegrass, Italian [7, 17] | Plant response rating, Ryegrass, Italian [7, 14] | Plant response rating, Ryegrass, Italian [7, 16]
60: Plant response rating, Blackgrass [1, 14]
0: Plant response rating, Goosegrass [2, 18] | Goosegrass plant response rating ([2]; Preemergence, scale 0 to 100) | Plant response rating, Russian Thistle [3, 19] | Plant response rating, Russian Thistle [3, 20] | Plant response rating, Russian Thistle ([3]; 62 g ai/ha, scale 0 to 100) | Kochia plant response rating (kochia (Kochia scoparia); [21]) | Plant response rating, Kochia (kochia (Kochia scoparia); [13]) | Plant response rating, Kochia (kochia (Kochia scoparia); [17]) | Plant response rating, Kochia (kochia (Kochia scoparia); [14]) | Plant response rating, Kochia (kochia (Kochia scoparia); [18]) | Plant response rating, Kochia (kochia (Kochia scoparia); [15]) | Plant response rating, Kochia (kochia (Kochia scoparia); [16]) | Plant response rating, Foxtail, Giant [4, 18] | Foxtail, Giant plant response rating ([4]; Preemergence, scale 0 to 100) | Cupgrass, Woolly plant response rating ([5]; Preemergence, scale 0 to 100) | Ragweed plant response rating ([6]; postemergence, 0-100 scale) | Plant response rating, Ragweed [6, 13] | Plant response rating, Ragweed [6, 17] | Plant response rating, Ragweed [6, 14] | Plant response rating, Ragweed [6, 16] | Ragweed plant response rating ([6]; Preemergence, scale 0 to 100) | Pigweed plant response rating ([8]; postemergence, 0-100 scale) | Plant response rating, Pigweed [8, 13] | Plant response rating, Pigweed [8, 17] | Plant response rating, Pigweed [8, 14] | Plant response rating, Pigweed [8, 18] | Plant response rating, Pigweed [8, 15] | Plant response rating, Pigweed [8, 16] | Pigweed plant response rating ([8]; Preemergence, scale 0 to 100) | Johnsongrass plant response rating ([9]; Preemergence, scale 0 to 100) | Plant response rating, Nightshade, E. B. [10, 19] | Plant response rating, Nightshade, E. B. ([10]; 62 g ai/ha, scale 0 to 100) | Nightshade, E. B. plant response rating ([10]; 8 g ai/ha, scale 0 to 100) | Lambsquarters plant response rating ([11]; postemergence, 0-100 scale) | Plant response rating, Lambsquarters [11, 13] | Plant response rating, Lambsquarters [11, 17] | Lambsquarters plant response rating ([11]; Preemergence, scale 0 to 100) | Soybean plant response rating (soybean (Glycine max); [21]) | Plant response rating, Soybean (soybean (Glycine max); 16 g ai/ha, scale 0 to 100) | Plant response rating, Soybean (soybean (Glycine max); 31 g ai/ha, scale 0 to 100, 0 no effect, 100 complete control) | Plant response rating, Soybean (soybean (Glycine max); 62 g ai/ha, scale 0 to 100) | Plant response rating, Galium [12, 19] | Galium plant response rating ([12]; 8 g ai/ha, scale 0 to 100)
40: Ryegrass, Italian plant response rating ([7]; postemergence, 0-100 scale) | Plant response rating, Ryegrass, Italian [7, 15] | Plant response rating, Lambsquarters [11, 14]
100: Plant response rating, Foxtail, Giant [4, 16] | Plant response rating, Cupgrass, Woolly [5, 14] | Plant response rating, Johnsongrass [9, 17] | Plant response rating, Johnsongrass [9, 14] | Plant response rating, Lambsquarters [11, 15] | Plant response rating, Lambsquarters [11, 16] | Plant response rating, Galium ([12]; 62 g ai/ha, scale 0 to 100)
70: Plant response rating, Goosegrass [2, 16]
